Laboratory results as given in patent publication US20240368150A1 (Hoffmann-La Roche Inc., priority 2021, published 2024).
Like-named read-outs stand apart in the source and are kept apart here.

How the values were obtained:
[1] = tested on: primary human T-cells
[2] = tested on: primary human T-cells; experiment: Proliferation assay after 5 days (CellTiter-Glo, CD3 stimulation; PBS counter screen); type: cell-based; conditions: CD3 stimulation; for Emax / Emax proliferation (% activation): 5 days, normalized to reference compound A1 as stimulator control = 100%, DMSO neutral control; for Emax: read-out: Emax proliferation (% activation); for EC50: primary human T-cells, CellTiter-Glo after 5 days, EC50 of fitted sigmoidal curve, read-out: Tcell Proliferation CD3 EC50
In short: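 Cpds added to medium-only plates; 5 d culture. Readout CellTiter-Glo 2.0 (equal vol), RT 45 min equilibration, 15 min rocking RT, luminescence. ATP signal taken as cell number.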

Row | EC50 [1] | Structure (SMILES) | Emax ([2]; Homo sapiens, T-cell, 120 h) | EC50 ([2]; Homo sapiens, T-cell, 120 h) | Emax proliferation (% activation) [2] | EC50 [2]
1 | 4370 nM | CN1CC(c2nc(-c3cc4c(cc3F)S(=O)(=O)C[C@H](N)C(=O)N4Cc3ccc(Cl)cc3)no2)CC(C)(C)C1 (stereo partly drawn) [Example 324, (3R)-3-amino-5-[(4-chlorophenyl)methyl]-8-fluoro-1,1-dioxo-7-[5-(1,5,5-trimethyl-3-piperidyl)-1,2,4-oxadiazol-3-yl]-2,3-dihydro-1λ^6,5-benzothiazepin-4-one] | 107% | 341 nM |  | 
2 | 455 nM | CN(C)Cc1nc(-c2cc3c(cc2F)S(=O)(=O)C[C@H](N)C(=O)N3Cc2ccc(Cl)cc2)no1 [Example 325, (3R)-3-amino-5-[(4-chlorophenyl)methyl]-7-[5-[(dimethylamino)methyl]-1,2,4-oxadiazol-3-yl]-8-fluoro-1,1-dioxo-2,3-dihydro-1λ^6,5-benzothiazepin-4-one] | 96% | 869 nM |  | 
3 | 703 nM | N[C@H]1CS(=O)(=O)c2cc(F)c(-c3noc(C(F)(F)C(F)(F)F)n3)cc2N(Cc2ccc(Cl)cc2)C1=O [Example 326, (3R)-3-amino-5-[(4-chlorophenyl)methyl]-8-fluoro-1,1-dioxo-7-[5-(1,1,2,2,2-pentafluoroethyl)-1,2,4-oxadiazol-3-yl]-2,3-dihydro-1λ^6,5-benzothiazepin-4-one] | 129% | 908 nM |  | 
4 | 2330 nM | C#CCOCCOCCOCCCC(C)(C)c1nc(-c2cc3c(cc2F)S(=O)(=O)C[C@H](N)C(=O)N3Cc2ccc(Cl)cc2)no1 [Example 327, (3R)-3-amino-5-[(4-chlorophenyl)methyl]-7-[5-[1,1-dimethyl-4-[2-(2-prop-2-ynoxyethoxy)ethoxy]butyl]-1,2,4-oxadiazol-3-yl]-8-fluoro-1,1-dioxo-2,3-dihydro-1λ^6,5-benzothiazepin-4-one] | 104% | 722 nM |  | 
5 | 1080 nM | CN(C)C(=O)c1nc(-c2cc3c(cc2F)S(=O)(=O)C[C@H](N)C(=O)N3Cc2ccc(OC(F)(F)F)cc2)no1 [Example 328, 3-[(3R)-3-amino-8-fluoro-1,1,4-trioxo-5-[[4-(trifluoromethoxy)phenyl]methyl]-2,3-dihydro-1λ^6,5-benzothiazepin-7-yl]-N,N-dimethyl-1,2,4-oxadiazole-5-carboxamide] | 120% | 1960 nM |  | 
6 | 198 nM | NC(c1nc(-c2cc3c(cc2F)S(=O)(=O)C[C@H](N)C(=O)N3Cc2ccc(OC(F)(F)F)cc2)no1)C(F)(F)F (stereo partly drawn) [Example 329, (3R)-3-amino-7-[5-(1-amino-2,2,2-trifluoro-ethyl)-1,2,4-oxadiazol-3-yl]-8-fluoro-1,1-dioxo-5-[[4-(trifluoromethoxy)phenyl]methyl]-2,3-dihydro-1λ^6,5-benzothiazepin-4-one] | 70% | 5330 nM |  | 
7 | 1830 nM | CC(C)(C)NC(=O)c1nc(-c2cc3c(cc2F)S(=O)(=O)C[C@H](N)C(=O)N3Cc2ccc(OC(F)(F)F)cc2)no1 [Example 330, 3-[(3R)-3-amino-8-fluoro-1,1,4-trioxo-5-[[4-(trifluoromethoxy)phenyl]methyl]-2,3-dihydro-1λ^6,5-benzothiazepin-7-yl]-N-tert-butyl-1,2,4-oxadiazole-5-carboxamide] | 132% | 291 nM |  | 
8 | 746 nM | N[C@H]1CS(=O)(=O)c2cc(F)c(-c3noc(C4(CO)CCCO4)n3)cc2N(Cc2ccc(OC(F)(F)F)cc2)C1=O (stereo partly drawn) [Example 332, (3R)-3-amino-8-fluoro-7-[5-[2-(hydroxymethyl)tetrahydrofuran-2-yl]-1,2,4-oxadiazol-3-yl]-1,1-dioxo-5-[[4-(trifluoromethoxy)phenyl]methyl]-2,3-dihydro-1λ^6,5-benzothiazepin-4-one] | 128% | 814 nM |  | 
9 | 714 nM | N[C@H]1CS(=O)(=O)c2cc(F)c(-c3noc(C4(N)COC4)n3)cc2N(Cc2ccc(OC(F)(F)F)cc2)C1=O [Example 333, (3R)-3-amino-7-[5-(3-aminooxetan-3-yl)-1,2,4-oxadiazol-3-yl]-8-fluoro-1,1-dioxo-5-[[4-(trifluoromethoxy)phenyl]methyl]-2,3-dihydro-1lambda6,5-benzothiazepin-4-one] | 94% | 1220 nM |  | 
10 | 239 nM | Cc1nnc(-c2nc(-c3cc4c(cc3F)S(=O)(=O)C[C@H](N)C(=O)N4Cc3ccc(OC(F)(F)F)cc3)no2)o1 [Example 334, (3R)-3-amino-8-fluoro-7-[5-(5-methyl-1,3,4-oxadiazol-2-yl)-1,2,4-oxadiazol-3-yl]-1,1-dioxo-5-[[4-(trifluoromethoxy)phenyl]methyl]-2,3-dihydro-1λ^6,5-benzothiazepin-4-one] | 80% | 345 nM |  | 
11 | 1580 nM | COC(F)(c1nc(-c2cc3c(cc2F)[S+]([O-])C[C@H](N)C(=O)N3Cc2ccc(Cl)cc2)no1)C(F)(F)F (stereo partly drawn) [Example 338, (3R)-3-amino-5-[(4-chlorophenyl)methyl]-8-fluoro-1-oxo-7-[5-(1,2,2,2-tetrafluoro-1-methoxy-ethyl)-1,2,4-oxadiazol-3-yl]-2,3-dihydro-1λ^4,5-benzothiazepin-4-one] | 137% | 282 nM |  | 
12 | 473 nM | N[C@H]1CS(=O)(=O)c2cc(F)c(-c3noc(C4(C(F)(F)F)CC4)n3)cc2N(Cc2ccc(OC(F)(F)F)cc2)C1=O [Example 344, (3R)-3-amino-8-fluoro-1,1-dioxo-5-[[4-(trifluoromethoxy)phenyl]methyl]-7-[5-[1-(trifluoromethyl)cyclopropyl]-1,2,4-oxadiazol-3-yl]-2,3-dihydro-1λ^6,5-benzothiazepin-4-one] | 120% | 69.7 nM |  | 
13 | 5720 nM | CC(C)Oc1ccc(CN2C(=O)[C@@H](N)CS(=O)(=O)c3cc(F)c(-c4noc(C5CN(C)CC(F)(F)C5)n4)cc32)nc1 (stereo partly drawn) [Example 346, (3R)-3-amino-7-[5-(5,5-difluoro-1-methyl-3-piperidyl)-1,2,4-oxadiazol-3-yl]-8-fluoro-5-[(5-isopropoxy-2-pyridyl)methyl]-1,1-dioxo-2,3-dihydro-1λ^6,5-benzothiazepin-4-one] | 100% | 5650 nM |  | 
14 | 3500 nM | CC(C)Oc1ccc(CN2C(=O)[C@@H](N)CS(=O)(=O)c3cc(F)c(-c4noc(C5CN(C)CC(F)(F)C5)n4)cc32)cn1 (stereo partly drawn) [Example 347, (3R)-3-amino-7-[5-(5,5-difluoro-1-methyl-3-piperidyl)-1,2,4-oxadiazol-3-yl]-8-fluoro-5-[(6-isopropoxy-3-pyridyl)methyl]-1,1-dioxo-2,3-dihydro-1λ^6,5-benzothiazepin-4-one] | 151% | 977 nM |  | 
15 | 1330 nM | COC(=O)N1CCC(c2nc(-c3cc4c(cc3F)S(=O)(=O)C[C@H](N)C(=O)N4Cc3ccc(OC(C)C)cc3)no2)C1 (some centres unmarked) [Example 349] | 124% | 399 nM |  | 
16 | 288 nM | COC(F)(c1nc(-c2cc3c(cc2F)S(=O)(=O)C[C@H](N)C(=O)N3Cc2ccccc2)no1)C(F)(F)F (stereo partly drawn) [Example 351, (3R)-3-amino-5-benzyl-8-fluoro-1,1-dioxo-7-[5-(1,2,2,2-tetrafluoro-1-methoxy-ethyl)-1,2,4-oxadiazol-3-yl]-2,3-dihydro-1λ^6,5-benzothiazepin-4-one] | 107% | 113 nM |  | 
17 | 5740 nM | CN(C)C(=O)c1nc(-c2cc3c(cc2F)S(=O)(=O)C[C@H](N)C(=O)N3Cc2ccc(OC(F)(F)C(F)F)cc2)no1 [Example 352, 3-[(3R)-3-amino-8-fluoro-1,1,4-trioxo-5-[[4-(1,1,2,2-tetrafluoroethoxy)phenyl]methyl]-2,3-dihydro-1λ^6,5-benzothiazepin-7-yl]-N,N-dimethyl-1,2,4-oxadiazole-5-carboxamide] | 100% | 768 nM |  | 
18 | 3250 nM | CC(C)(C)c1nc(-c2cc3c(cc2F)S(=O)(=O)C[C@H](N)C(=O)N3Cc2ccc(OCC3CCOCC3)cc2)no1 [Example 353, (3R)-3-amino-7-(5-tert-butyl-1,2,4-oxadiazol-3-yl)-8-fluoro-1,1-dioxo-5-[[4-(tetrahydropyran-4-ylmethoxy)phenyl]methyl]-2,3-dihydro-1λ^6,5-benzothiazepin-4-one] | 108% | 7240 nM |  | 

Row | Structure (SMILES) | EC50 [1] | Emax ([2]; Homo sapiens, T-cell, 120 h) | EC50 ([2]; Homo sapiens, T-cell, 120 h) | Emax proliferation (% activation) [2] | EC50 [2]
19 | COC(=O)N1CC2CC(c3nc(-c4cc5c(cc4F)S(=O)(=O)C[C@H](N)C(=O)N5Cc4ccc(OC(F)(F)F)cc4)no3)(C2)C1 [Example 335, methyl 1-[3-[(3R)-3-amino-8-fluoro-1,1,4-trioxo-5-[[4-(trifluoromethoxy)phenyl]methyl]-2,3-dihydro-1λ^6,5-benzothiazepin-7-yl]-1,2,4-oxadiazol-5-yl]-3-azabicyclo[3.1.1]heptane-3-carboxylate] | 819 nM | 161% |  |  | 
20 | COC(=O)N1CC2CC(c3nc(-c4cc5c(cc4F)[S+]([O-])C[C@H](N)C(=O)N5Cc4ccc(OC(F)(F)F)cc4)no3)(C2)C1 (stereo partly drawn) [Example 336, methyl 1-[3-[(3R)-3-amino-8-fluoro-1,4-dioxo-5-[[4-(trifluoromethoxy)phenyl]methyl]-2,3-dihydro-1λ^4,5-benzothiazepin-7-yl]-1,2,4-oxadiazol-5-yl]-3-azabicyclo[3.1.1]heptane-3-carboxylate] | 7020 nM |  |  | 114 % activation | 1100 nM
21 | COC(=O)N1CC2CC(c3nc(-c4cc5c(cc4F)[S+]([O-])C[C@H](N)C(=O)N5Cc4ccc(OC(F)(F)F)cc4)no3)(C2)C1 (stereo partly drawn) [Example 337, methyl 1-[3-[(3R)-3-amino-8-fluoro-1,4-dioxo-5-[[4-(trifluoromethoxy)phenyl]methyl]-2,3-dihydro-1λ^4,5-benzothiazepin-7-yl]-1,2,4-oxadiazol-5-yl]-3-azabicyclo[3.1.1]heptane-3-carboxylate] | 5950 nM |  |  | 92 % activation | 2270 nM
